Experimental findings from the PolyMetriX glass transition set are described below.

Regarding `*/C=C(/*)c1ccc(-n2c(=O)c3cc4c(=O)n(-c5ccc(C#C)cc5)c(=O)c4cc3c2=O)cc1` (repeat unit), the glass transition temperature is 420.00 °C. Turning to `*C(=O)Nc1cccc(NC(=O)c2ccc(-c3nc4cc(*)ccc4[nH]3)cc2)c1` (repeat unit), the glass transition temperature is 325.00 °C. The value for `*C(=O)Nc1cccc(NC(=O)c2ccc3c(c2)C(=O)N(c2ccc(-c4sc(-c5ccc(N6C(=O)c7ccc(*)cc7C6=O)cc5)c(-c5ccccc5)c4-c4ccccc4)cc2)C3=O)c1` (repeat unit) was 334.00 °C; that for `*C(=O)Nc1cccc(NC(=O)c2ccc3c(c2)C(=O)N(c2ccc(S(=O)(=O)c4ccc(N5C(=O)c6ccc(*)cc6C5=O)cc4)cc2)C3=O)c1` (repeat unit) was 311.00 °C.

With `*C(=O)Nc1cccc(P(=O)(c2ccccc2)c2cccc(NC(=O)c3ccc4c(c3)C(=O)N(c3cccc(P(=O)(c5ccccc5)c5cccc(N6C(=O)c7ccc(*)cc7C6=O)c5)c3)C4=O)c2)c1` (repeat unit), the glass transition temperature was 206.00 °C. Compound `*C(=O)Nc1cccc2c(NC(=O)c3ccc4c(c3)C(=O)N(c3ccc(Oc5cccc6c(N7C(=O)c8ccc(*)cc8C7=O)cccc56)cc3)C4=O)cccc12` (repeat unit) registered a glass transition temperature of 299.00 °C. With `*C(=O)c1ccc(N(*)CCC)cc1` (repeat unit) the figure was 136.00 °C. The value for `*C(=O)c1ccc(N(*)CCCC)cc1` (repeat unit) was 124.00 °C; that for `*C(=O)c1ccc2c(c1)C(=O)N(c1ccc(C(=O)N(C)c3ccc(N4C(=O)c5ccc(*)cc5C4=O)cc3)cc1)C2=O` (repeat unit) was 313.00 °C.

In turn, `*C(=O)c1ccc2c(c1)C(=O)N(c1ccc(C(=O)Nc3cccc(N4C(=O)c5ccc(*)cc5C4=O)c3)cc1)C2=O` (repeat unit) displayed a glass transition temperature of 311.00 °C.

With `*C(=O)c1ccc2c(c1)C(=O)N(c1ccc(C(=O)c3ccc(Cc4ccc(C(=O)c5ccc(N6C(=O)c7ccc(*)cc7C6=O)cc5)cc4)cc3)cc1)C2=O` (repeat unit), the glass transition temperature is 285.50 °C. The value for `*C(=O)c1ccc2c(c1)C(=O)N(c1cccc(C(=O)Nc3cccc(N4C(=O)c5ccc(*)cc5C4=O)c3)c1)C2=O` (repeat unit) was 287.00 °C; that for `*C(=O)c1ccc2c(c1)C(=O)N(c1cccc(Cc3ccc(C(=O)c4ccc(N5C(=O)c6ccc(*)cc6C5=O)cc4)cc3)c1)C2=O` (repeat unit) was 254.00 °C; that for `*C(=O)c1ccc2c(c1)C(=O)N(c1cccc(NC(=O)c3cccc(C(=O)Nc4cccc(N5C(=O)c6ccc(*)cc6C5=O)c4)c3)c1)C2=O` (repeat unit) was 204.00 °C. With `*CCCCCC(=O)Oc1ccc(OC(=O)CCCCCn2c(=O)c3cc4c(=O)n(*)c(=O)c4cc3c2=O)c(C)c1` (repeat unit) the figure was 78.00 °C; with `*CCOCCOCCOc1cccc(NC(=O)c2ccc(C(=O)Nc3cccc(O*)c3)cc2)c1` (repeat unit), 116.00 °C. The value for `*Nc1cccc(NC(=O)c2cc(C(*)=O)cc(S(=O)(=O)c3ccccc3)c2)c1` (repeat unit) was 277.00 °C; that for `*Nc1cccc(NC(=O)c2cccc(C(*)=O)c2)c1` (repeat unit) was 275.00 °C. On to `*Nc1cccc2c(NC(=O)c3cccc(C(*)=O)c3)cccc12` (repeat unit), for which the glass transition temperature was 325.00 °C.

`*Nc1cnc(*)s1` (repeat unit) returned a glass transition temperature of 139.00 °C.

With `*OC(=O)c1ccc(Cc2ccc(C(*)=O)cc2)cc1` (repeat unit), the glass transition temperature came out at 122.00 °C. With `*OC1C(C)(C)C(OC(=O)C2CCC(C(*)=O)CC2)C1(C)C` (repeat unit) the figure was 169.00 °C.

With `*[O][Sn]([CH2]CCC)([CH2]CCC)[O]C(=O)/C=C/C(*)=O` (repeat unit), the glass transition temperature was determined as 186.00 °C. Consider `*[O][Sn]([CH2]CCC)([CH2]CCC)[O]C(=O)c1ccc(C(*)=O)cc1` (repeat unit), for which the glass transition temperature was 315.00 °C. Compound `*Oc1c(C)cc(C(C)(C)c2cc(C)c(OC(*)=O)c(Cl)c2)cc1Cl` (repeat unit) displayed a glass transition temperature of 154.00 °C. With `*Oc1cc(C(C)(C)c2ccccc2)c(OC(=O)c2ccc(C(*)=O)cc2)cc1C(C)(C)c1ccccc1` (repeat unit) the figure was 170.00 °C. With `*Oc1cc(OC(=O)c2ccc(C(*)=O)cc2)cc(C(=O)OCCN(CC)c2ccc(/N=N/c3ccc([N+](=O)[O-])cc3)cc2)c1` (repeat unit) the figure was 130.00 °C; with `*Oc1cc(OC(=O)c2ccc(OC)cc2)c(OC(=O)CCCC(*)=O)cc1OC(=O)c1ccc(OC)cc1` (repeat unit), 88.00 °C; with `*Oc1cc(OC(=O)c2ccc(OC)cc2)c(OC(=O)CCCCCCCCCCCCCCC(*)=O)cc1OC(=O)c1ccc(OC)cc1` (repeat unit), 33.00 °C.

Regarding `*Oc1cc(OC(=O)c2ccc(OCC)cc2)c(OC(=O)CCCCCCCCCCCCCCC(*)=O)cc1OC(=O)c1ccc(OCC)cc1` (repeat unit), the glass transition temperature stood at 31.00 °C. The value for `*Oc1cc(OC(=O)c2ccc(OCCC)cc2)c(OC(=O)CCCC(*)=O)cc1OC(=O)c1ccc(OCCC)cc1` (repeat unit) was 72.00 °C. The value for `*Oc1cc(OC(=O)c2ccc(OCCC)cc2)c(OC(=O)CCCCCCCCCCCCCCC(*)=O)cc1OC(=O)c1ccc(OCCC)cc1` (repeat unit) was 18.00 °C; that for `*Oc1cc(OC(=O)c2ccc(OCCCC)cc2)c(OC(=O)CCCC(*)=O)cc1OC(=O)c1ccc(OCCCC)cc1` (repeat unit) was 59.00 °C; that for `*Oc1cc(OC(=O)c2ccc(OCCCC)cc2)c(OC(=O)CCCCCCCC(*)=O)cc1OC(=O)c1ccc(OCCCC)cc1` (repeat unit) was 38.00 °C.

As to `*Oc1cc(OC(=O)c2ccc(OCCCCCCCCCCCC)cc2)c(OC(=O)CCCC(*)=O)cc1OC(=O)c1ccc(OCCCCCCCCCCCC)cc1` (repeat unit), the glass transition temperature was found to be 23.00 °C. On to `*Oc1cc(OCCOC)c(OC(=O)c2ccc(C(*)=O)cc2-c2ccccc2)cc1OCCOC` (repeat unit), for which the glass transition temperature turned out to be 92.00 °C. With `*Oc1ccc(-c2ccc(OC(=O)c3ccc(-c4ccc(C(*)=O)cc4C(F)(F)F)c(C(F)(F)F)c3)cc2C(=O)OCCCCCCCCCCCOc2ccc(-c3ccc(C#N)cc3)cc2)c(C(=O)OCCCCCCCCCCCOc2ccc(-c3ccc(C#N)cc3)cc2)c1` (repeat unit) the figure was 50.00 °C; with `*Oc1ccc(C(=O)c2cccc(NC(=O)c3ccc(C(=O)Nc4cccc(C(=O)c5ccc(*)cc5)c4)cc3)c2)cc1` (repeat unit), 189.00 °C. With `*Oc1ccc(C(=O)c2cccc(NC(=O)c3cccc(C(=O)Nc4cccc(C(=O)c5ccc(*)cc5)c4)c3)c2)cc1` (repeat unit) the figure was 191.00 °C.

`*Oc1ccc(C(c2ccc(Oc3ccc(C(=O)c4ccc(C(c5ccc(C(=O)c6ccc(*)cc6)cc5)(C(F)(F)F)C(F)(F)F)cc4)cc3)cc2)(C(F)(F)F)C(F)(F)F)cc1` (repeat unit) showed a glass transition temperature of 185.00 °C. As for `*Oc1ccc(OC(=O)c2cc(OCCCc3ccccc3)c(C(*)=O)cc2OCCCc2ccccc2)cc1C` (repeat unit), the glass transition temperature worked out at 91.00 °C.

For the compound `*Oc1ccc(OC(=O)c2ccc(-c3ccc(C(*)=O)cc3)cc2-c2ccccc2)cc1C` (repeat unit), the glass transition temperature came out at 133.00 °C. The compound `*Oc1ccc(OC(=O)c2ccc(C(*)=O)cc2Sc2ccccc2)cc1C` (repeat unit) came in with a glass transition temperature of 130.00 °C. The value for `*Oc1ccc(OC(=O)c2ccc(OCCCCCCOc3ccc(C(*)=O)cc3)cc2)cc1/N=N/c1ccc(C#N)cc1` (repeat unit) was 98.00 °C; that for `*Oc1ccc(Oc2ccc(C(=O)c3cccc(NC(=O)c4ccc(C(=O)Nc5cccc(C(=O)c6ccc(*)cc6)c5)cc4)c3)cc2)cc1` (repeat unit) was 210.00 °C; that for `*Sc1ccc(C(=O)c2ccc(C(c3ccc(C(=O)c4ccc(*)cc4)cc3)(C(F)(F)F)C(F)(F)F)cc2)cc1` (repeat unit) was 175.00 °C. With `*c1ccc(-c2cc(-c3ccc(-c4ccccc4)cc3)cc(-c3ccc(N4C(=O)c5ccc(NC(=O)Nc6cccc7c(NC(=O)Nc8ccc9c(c8)C(=O)N(*)C9=O)cccc67)cc5C4=O)cc3)n2)cc1` (repeat unit) the figure was 254.00 °C; with `*c1ccc(C(=O)Nc2cccc(-n3c(=O)c4cc5c(=O)n(*)c(=O)c5cc4c3=O)c2)cc1` (repeat unit), 390.00 °C; with `*c1ccc(C(=O)Nc2cccc(Oc3ccc(S(=O)(=O)c4ccc(Oc5cccc(NC(=O)c6ccc(N7C(=O)c8ccc(-c9cccc%10c9C(=O)N(*)C%10=O)cc8C7=O)cc6)c5)cc4)cc3)c2)cc1` (repeat unit), 241.00 °C. For `*c1ccc(C(=O)Nc2cccc(S(=O)(=O)c3cccc(NC(=O)c4ccc(N5C(=O)c6ccc(-c7ccc8c(c7)C(=O)N(*)C8=O)cc6C5=O)cc4)c3)c2)cc1` (repeat unit), the glass transition temperature came to 256.00 °C. The value for `*c1ccc(C(=O)c2ccc(N3C(=O)c4ccc(Oc5ccc(Oc6ccc7c(c6)C(=O)N(*)C7=O)cc5)cc4C3=O)cc2)cc1` (repeat unit) was 268.00 °C; that for `*c1ccc(Oc2cccc(NC(=O)c3cc(C(=O)Nc4cccc(Oc5ccc(-c6nnc(*)o6)cc5)c4)cc(N4C(=O)c5ccccc5C4=O)c3)c2)cc1` (repeat unit) was 245.00 °C; that for `*c1cccc(NC(=O)c2ccc(OCCOCCOCCOCCOc3ccc(C(=O)Nc4ccc5[nH]c(*)nc5c4)cc3)cc2)c1` (repeat unit) was 155.00 °C. Consider `*c1cccc(NC(=O)c2ccc(OCCOCCOCCOc3ccc(C(=O)Nc4ccc5[nH]c(*)nc5c4)cc3)cc2)c1` (repeat unit), for which the glass transition temperature was 180.00 °C. With `*c1cccc(NC(=O)c2ccc(OCCOCCOc3ccc(C(=O)Nc4ccc5[nH]c(*)nc5c4)cc3)cc2)c1` (repeat unit) the figure was 215.00 °C.
